From US20260335453A1, “ISOINDOLINONE-GLUTARIMIDE ANTIBODY CONJUGATES, AND USES THEREOF” (FIREFLY BIO, INC., priority 2023, published 2026) come the findings set out here.

Where only a bound is given, the exact number is not on record here.

Assay [1] has as its system CAL51 cells. Put plainly: Cell proliferation (Cell Titer Glow), CAL51. Type of assay: cell-based. The settings on record: Homo sapiens, CAL-51; IG compounds, cell killing, 72 h. Here is the method:
(§1) Exemplary isoindolinone-glutarimide (IG) compounds of Table 1a, 1b and 1c were prepared and characterized according to the Examples herein. Certain exemplary IG compounds of(Table 1a were tested for their effects in inhibiting cellular proliferation, including CAL1 WSU-DLCL2, NCI-N87 and SKBR3. CAL51 is a human breast adenocarcinoma cell line with triple-negative status for expression of estrogen, progesterone and HER2 receptors. WSU-DLCL2 is a human B-Cell non-Hodgkin lymphoma cell line that expresses high levels of CD22. NCI-N87 is a human epithelial cell line established from a gastric carcinoma; SKBR3 is a human epithelial cell line established from a breast adenocarcinoma; both NCI-N87 and SKBR3 cell lines express high levels of HER2 receptor. […]
(§2) One day prior to treatment with compounds or IGAC, cells were plated in white 96-well plates (SKBR: 3000 cells/well; CAL-51: 4000 cells/well). Compounds or ADCs were added in a serial-dilution manner reaching the indicated concentrations. Plates were incubated at 37 degrees for 96h (ADCs) or 72h (compounds) whereafter a 1:10 dilution of Cell Titer Glow was used to measure relative cell numbers after 10 min of incubation at room temperature.

The test system of assay [2] is WSU-DLCL2 cells. In words: Cell proliferation (Cell Titer Glow), WSU-DLCL2. Type of assay: cell-based. As to conditions: Homo sapiens, WSUDLCL2; IG compounds, cell killing, 72 h. The procedure: Exemplary isoindolinone-glutarimide (IG) compounds of Table 1a, 1b and 1c were prepared and characterized according to the Examples herein. Certain exemplary IG compounds of(Table 1a were tested for their effects in inhibiting cellular proliferation, including CAL1 WSU-DLCL2, NCI-N87 and SKBR3. CAL51 is a human breast adenocarcinoma cell line with triple-negative status for expression of estrogen, progesterone and HER2 receptors. WSU-DLCL2 is a human B-Cell non-Hodgkin lymphoma cell line that expresses high levels of CD22. NCI-N87 is a human epithelial cell line established from a gastric carcinoma; SKBR3 is a human epithelial cell line established from a breast adenocarcinoma; both NCI-N87 and SKBR3 cell lines express high levels of HER2 receptor.
Exemplary embodiments of the isoindolinone-glutarimide antibody conjugates (IGAC) of Formula I are compiled in Table 3. Assessment of IGAC biological activity and other properties may be conducted according to the methods of Example 102. In some instances, the Cell proliferation dose response IC50 value is an average of repetitive assays. Certain exemplary IGAC were tested for their effects in inhibiting cellular proliferation, including CAL51; WSU-DLCL2, NCI-N87 and SKBR3 cell lines. CAL51 is a human breast adenocarcinoma cell line with triple-negative status for expression of estrogen, progesterone and HER2 receptors. WSU-DLCL2 is a human B-Cell non-Hodgkin lymphoma cell line that expresses high levels of CD22. NCI-N87 is a human epithelial cell line established from a gastric carcinoma; SKBR3 is a human epithelial cell line established from a breast adenocarcinoma; both NCI-N87 and SKBR3 cell lines express high levels of HER2 receptor.
On the day of treatment, 10,000 suspension cells/well were plated in white 96-well plates. Compounds or ADCs were added in a serial-dilution manner reaching the indicated concentrations. Plates were incubated at 37 degrees for 72 h whereafter a 1:10 dilution of Cell Titer Glow was used to measure relative cell numbers after 10 min of incubation at room temperature.

Assay [3] deals with SKBR3 cells. In words: Cell proliferation (Cell Titer Glow), SKBR3. Type of assay: cell-based. As to conditions: Homo sapiens, SK-BR-3; IG compounds, cell killing, 72 h. The procedure: as §1, §2
The test system of assay [4] is CAL51 cells. Put plainly: Degradation assay evaluated by immunofluorescence staining, CAL51. The settings on record: Homo sapiens, CAL-51, CAL51, 6 h. Type of assay: cell-based, human. Here is the method: (§3) One day prior to treatment with compounds, black 96 well plates were coated with fibronectin (0.2 μg/ml in PBS) for 45 min at room temperature and subsequently washed with PBS. CAL-51 or SKBR3 cells were seeded at 30K cells/well (1001) and incubated overnight at 37° C. whereafter compounds were added reaching indicated concentrations. 6 h after treatment the medium was removed, cells were washed with PBS and fixed with 10% formalin for 20 mins at room temperature. Following two PBS washes (150 μl), cells were permeabilized in 0.1% Triton X-100 in PBS for 8 mins at room temperature and subsequently washed again twice with PBS. Cells were blocked thereafter with 1% BSA in PBS for 45 mins. Primary antibody was diluted in blocking buffer and incubated with the cells overnight at 4° C. After three washes with PBS, cells were incubated with secondary antibody for 1 h at RT, washed and subsequently images were taken on an Operetta High-Content Imager.
(§4) For the determination of the DC50, a custom algorithm implemented in the PerkinElmer image analysis software Harmony-Acapella® was used.

Assay [5] relates to SKBR3 cells. Put plainly: Degradation assay evaluated by immunofluorescence staining, SKBR3. Type of assay: cell-based. As to conditions: Homo sapiens, SK-BR-3, SKBR3, 6 h. The procedure: as §3, §4

In general, IC50 refers to the concentration needed to halve the response being measured. What is called Dmax is the largest share of the target that was removed. The low end stands for a partial loss of target, the high end for a fuller loss of target. With `CNCCOCCc1ccc(NC(=O)CCc2ccc3c(c2)CN(C2CCC(=O)NC2=O)C3=O)cc1Cl` (stereo not drawn) [IG-2, N-(3-chloro-4-(2-(2-(methylamino)ethoxy)ethyl)phenyl)-3-(2-(2,6-dioxopiperidin-3-yl)-1-oxoisoindolin-5-yl)propenamide], the IC50 in assay [1], in assay [2] and in assay [3] was greater than 10000 nM throughout. This molecule yielded a Dmax in assay [4] of less than 5%.
In general, DC50 refers to the midpoint of the concentration-degradation curve. Low readings indicate degradation at low concentration, high ones degradation only at high concentration. As for `CNCCOCCc1ccc(NC(=O)NCc2ccc3c(c2)CN(C2CCC(=O)NC2=O)C3=O)cc1Cl` (stereo not drawn) [IG-3, 1-(3-chloro-4-(2-(2-(methylamino)ethoxy)ethyl)phenyl)-3-((2-(2,6-dioxopiperidin-3-yl)-1-oxoisoindolin-5-yl)methyl)urea], the values for the IC50 in assay [1], in assay [2] and in assay [3] were 3010 nM, 66.4 nM and 77.5 nM, respectively. Besides, the DC50 amounted to 345 ± 135 nM in assay [4] and 185 nM in assay [5]. Besides, the Dmax was found to be 79.4 ± 3.63% in assay [4] and 78.2% in assay [5].
`Cc1ccc(NC(=O)NCc2ccc3c(c2)CN(C2CCC(=O)NC2=O)C3=O)cc1O` (stereo not drawn) [IG-12, 1-((2-(2,6-dioxopiperidin-3-yl)-1-oxoisoindolin-5-yl)methyl)-3-(3-hydroxy-4-methylphenyl)urea] returned an IC50 in assay [1] of 1250 nM. Further, the DC50 in assay [4] stood at 118 ± 35 nM; in assay [5], 52.2 nM. Besides, the Dmax amounted to 96.8 ± 4.12% in assay [4] and 98.3% in assay [5].
As to `Cc1ccc(NC(=O)NCc2ccc3c(c2O)CN(C2CCC(=O)NC2=O)C3=O)cc1Cl` (stereo not drawn) [IG-15, 1-(3-chloro-4-methylphenyl)-3-((2-(2,6-dioxopiperidin-3-yl)-4-hydroxy-1-oxoisoindolin-5-yl)methyl)urea], the results for the IC50 in assay [1], in assay [2] and in assay [3] were 54.9 nM, 4.25 nM and 5.19 nM, respectively. Moreover, the results for the DC50 in assay [4] and in assay [5] were 35.8 ± 20.4 nM and less than 2.26 nM, respectively. In addition, the Dmax is 79.2 ± 9.1% in assay [4] and 91.1 ± 3.35% in assay [5].
The molecule `CC(C)(C)c1ccc(NC(=O)NCc2ccc3c(c2O)CN(C2CCC(=O)NC2=O)C3=O)cc1` (stereo not drawn) [IG-26, 1-(4-(tert-butyl)phenyl)-3-((2-(2,6-dioxopiperidin-3-yl)-4-hydroxy-1-oxoisoindolin-5-y1)methyl)urea] registered a concentration for half-maximal inhibition (IC50) in assay [1] greater than 10000 nM. This molecule also gave a Dmax in assay [4] of 22.1%.
For the molecule `CC(C)(C)c1ccccc1NC(=O)NCc1ccc2c(c1O)CN(C1CCC(=O)NC1=O)C2=O` (stereo not drawn) [IG-28, 1-(2-(tert-butyl)phenyl)-3-((2-(2,6-dioxopiperidin-3-yl)-4-hydroxy-1-oxoisoindolin-5-yl)methyl)urea], the IC50 in assay [1] worked out at 22.5 nM. Also, in assay [4], half-maximal degradation (DC50) was put at 46.9 nM and the Dmax came to 94.2%. In assay [5], this molecule came in with a DC50 of 5.2 nM and a maximal degradation (Dmax) of 90.2%.
`CNc1c(CNC(=O)Nc2ccc(C)c(Cl)c2)ccc2c1CN(C1CCC(=O)NC1=O)C2=O` (stereo not drawn) [IG-31, 1-(3-chloro-4-methylphenyl)-3-((2-(2,6-dioxopiperidin-3-yl)-4-(methylamino)-1-oxoisoindolin-5-yl)methyl)urea]: the IC50 in assay [1] was greater than 10000 nM. The molecule further had a Dmax in assay [4] of 18.6%.
For `Cc1ccc(NC(=O)NCc2cc3c(cc2O)C(=O)N(C2CCC(=O)NC2=O)C3)cc1Cl` (stereo not drawn) [IG-36, 1-(3-chloro-4-methylphenyl)-3-((2-(2,6-dioxopiperidin-3-yl)-6-hydroxy-1-oxoisoindolin-5-yl)methyl)urea], the IC50 in assay [1] was 120 nM; in assay [2], 4.95 nM; in assay [3], 3.5 nM. For the same molecule, the DC50 is 660 ± 997 nM in assay [4] and 4.62 nM in assay [5]. The Dmax in assay [4] was found to be 78.5 ± 8.18%; in assay [5] it was 91.8%.
As for `Cc1ccc(C(=O)C(=O)NCc2ccc3c(c2O)CN(C2CCC(=O)NC2=O)C3=O)cc1Cl` (stereo not drawn) [IG-37, 2-(3-chloro-4-methylphenyl)-N-((2-(2,6-dioxopiperidin-3-yl)-4-hydroxy-1-oxoisoindolin-5-y1)methyl)-2-oxoacetamide], the IC50 was 72.5 nM in assay [1], 9.6 nM in assay [2] and 4.2 nM in assay [3]. Further, the DC50 is 139 nM in assay [4] and 7.88 nM in assay [5]. Moreover, the Dmax in assay [4] is 70.9%; in assay [5] it was 95.2%.
The molecule `O=C1CCC(N2Cc3c(ccc(CNC(=O)Nc4cccc5ccccc45)c3O)C2=O)C(=O)N1` (stereo not drawn) [IG-38, 1-((2-(2,6-dioxopiperidin-3-yl)-4-hydroxy-1-oxoisoindolin-5-yl)methyl)-3-(naphthalen-1-yl)urea] displayed an IC50 in assay [1] of 35.9 nM. Besides, in assay [4], the DC50 is 113 nM and the Dmax was 93.7%. For the same molecule, in assay [5], half-maximal degradation (DC50) was put at 10.6 nM and the Dmax was found to be 94.1%.
For the molecule `O=C1CCC(N2Cc3c(ccc(CNC(=O)Nc4ccc5ccccc5c4)c3O)C2=O)C(=O)N1` (stereo not drawn) [IG-39, 1-((2-(2,6-dioxopiperidin-3-yl)-4-hydroxy-1-oxoisoindolin-5-yl)methyl)-3-(naphthalen-2-yl)urea], it took 14.1 nM to reach half-maximal inhibition in assay [3] (IC50). Also, in assay [4], the DC50 worked out at 81.4 nM and the Dmax worked out at 69.4%. In assay [5], this molecule gave a DC50 of 42.7 nM and a Dmax of 77.4%.
As to `O=C1CCC(N2Cc3c(ccc(CNC(=O)Nc4ccc(Br)c(Cl)c4)c3O)C2=O)C(=O)N1` (stereo not drawn) [IG-40, 1-(4-bromo-3-chlorophenyl)-3-((2-(2,6-dioxopiperidin-3-yl)-4-hydroxy-1-oxoisoindolin-5-yl)methyl)urea], the IC50 in assay [3] turned out to be 21.3 nM.
For the molecule `O=C1CCC(N2Cc3c(ccc(CNC(=O)Nc4ccc(I)c(Cl)c4)c3O)C2=O)C(=O)N1` (stereo not drawn) [IG-41, 1-(3-chloro-4-iodophenyl)-3-((2-(2,6-dioxopiperidin-3-yl)-4-hydroxy-1-oxoisoindolin-5-yl)methyl)urea], the concentration for half-maximal inhibition (IC50) in assay [1] turned out to be 25 nM; in assay [3] it was 17.1 nM.
As for `CC(C)(C)c1ccc(NC(=O)NCc2ccc3nnn(C4CCC(=O)NC4=O)c(=O)c3c2)c(O)c1` (stereo not drawn) [IG-49, 1-(4-(tert-butyl)-2-hydroxyphenyl)-3-((3-(2,6-dioxopiperidin-3-yl)-4-oxo-3,4-dihydrobenzo[d][1,2,3]triazin-6-yl)methyl)urea], 41.7 nM corresponded to half-maximal inhibition in assay [3] (IC50).
Consider `CC(C)c1cc(NC(=O)NCc2ccc3c(c2O)CN(C2CCC(=O)NC2=O)C3=O)ccc1C(F)(F)F` (stereo not drawn) [IG-51, 1-((2-(2,6-dioxopiperidin-3-yl)-4-hydroxy-1-oxoisoindolin-5-yl)methyl)-3-(3-isopropyl-4-(trifluoromethyl)phenyl)urea], for which the IC50 in assay [2] amounted to 10.2 nM; in assay [3] it was 15.7 nM.
Regarding `O=C1CCC(N2Cc3c(ccc(CNC(=O)C(F)(F)c4ccc(Cl)cc4)c3O)C2=O)C(=O)N1` (stereo not drawn) [IG-52, 2-(4-chlorophenyl)-N-((2-(2,6-dioxopiperidin-3-yl)-4-hydroxy-1-oxoisoindolin-5-yl)methyl)-2,2-difluoroacetamide], the IC50 was greater than 2000 nM in assay [2] and 443 nM in assay [3].
In the case of `Cc1c(Cl)cc(NC(=O)NCc2ccc3c(c2)CN(C2CCC(=O)NC2=O)C3=O)cc1N1CCOC1=O` (stereo not drawn) [IG-54, 1-(3-chloro-4-methyl-5-(2-oxooxazolidin-3-yl)phenyl)-3-((2-(2,6-dioxopiperidin-3-yl)-1-oxoisoindolin-5-yl)methyl)urea], the results for the IC50 in assay [2] and in assay [3] were 6.9 nM and 14.5 nM, respectively.
